ChEMBL document CHEMBL5113420, “Selective inhibition of histone deacetylase 3 by novel hydrazide based small molecules as therapeutic intervention for the treatment of cancer” (Eur J Med Chem, 2022)
Values joined by “and” are separate entries in the source; they are usually repeats but may differ in a detail not shown here. Equal entries are not always repeated. Active and inactive are the calls of the source. The rule behind the calls is not given here.

How the values were obtained:
[1] = Tmax in Wistar rat at 15 mg/kg, iv measured upto 24 hrs by HPLC analysis; type: ADME, organism-based; settings: in vivo
[2] = Tmax in Wistar rat at 25 mg/kg, iv measured upto 24 hrs by HPLC analysis; type: ADME, organism-based; settings: in vivo
[3] = Tmax in Wistar rat at 15 mg/kg, ip measured upto 24 hrs by HPLC analysis; type: ADME, organism-based; settings: in vivo
[4] = Cmax in Wistar rat at 15 mg/kg, iv measured upto 24 hrs by HPLC analysis; type: ADME, organism-based; set-up: time < 24 hrs, dose 15 mg/kg, route iv; settings: in vivo
[5] = Cmax in Wistar rat at 25 mg/kg, iv measured upto 24 hrs by HPLC analysis; type: ADME, organism-based; set-up: dose 25 mg/kg, time < 24 hrs, route iv; settings: in vivo
[6] = Cmax in Wistar rat at 15 mg/kg, ip measured upto 24 hrs by HPLC analysis; type: ADME, organism-based; set-up: dose 15 mg/kg, time < 24 hrs, route ip; settings: in vivo
[7] = AUCt in Wistar rat at 15 mg/kg, iv measured upto 24 hrs by HPLC analysis; type: ADME, organism-based; set-up: time < 24 hrs, dose 15 mg/kg, route iv; settings: in vivo
[8] = AUCt in Wistar rat at 25 mg/kg, iv measured upto 24 hrs by HPLC analysis; type: ADME, organism-based; set-up: dose 25 mg/kg, time < 24 hrs, route iv; settings: in vivo
[9] = AUCt in Wistar rat at 15 mg/kg, ip measured upto 24 hrs by HPLC analysis; type: ADME, organism-based; set-up: time < 24 hrs, dose 15 mg/kg, route ip; settings: in vivo
[10] = AUC (0 to infinity) in Wistar rat at 25 mg/kg, iv measured upto 24 hrs by HPLC analysis; type: ADME, organism-based; set-up: time < 24 hrs, dose 25 mg/kg, route iv; settings: in vivo
[11] = AUC (0 to infinity) in Wistar rat at 15 mg/kg, ip measured upto 24 hrs by HPLC analysis; type: ADME, organism-based; set-up: time < 24 hrs, dose 15 mg/kg, route ip; settings: in vivo
[12] = MRT in Wistar rat at 15 mg/kg, iv measured upto 24 hrs by HPLC analysis; type: ADME, organism-based; settings: in vivo
[13] = MRT in Wistar rat at 25 mg/kg, iv measured upto 24 hrs by HPLC analysis; type: ADME, organism-based; settings: in vivo
[14] = MRT in Wistar rat at 15 mg/kg, ip measured upto 24 hrs by HPLC analysis; type: ADME, organism-based; settings: in vivo
[15] = Half life in Wistar rat at 15 mg/kg, iv measured upto 24 hrs by HPLC analysis; type: ADME, organism-based; settings: in vivo
[16] = Half life in Wistar rat at 25 mg/kg, iv measured upto 24 hrs by HPLC analysis; type: ADME, organism-based; settings: in vivo
[17] = Half life in Wistar rat at 15 mg/kg, ip measured upto 24 hrs by HPLC analysis; type: ADME, organism-based; settings: in vivo
[18] = Apparent volume of distribution during terminal phase in Wistar rat at 15 mg/kg, ip measured upto 24 hrs by HPLC analysis; type: ADME, organism-based; settings: in vivo
[19] = Apparent volume of distribution during terminal phase in Wistar rat at 25 mg/kg, ip measured upto 24 hrs by HPLC analysis; type: ADME, organism-based; settings: in vivo
[20] = tested on: 4T1; experiment: Antitumor activity against mouse 4T1-luc cells Balb/c mouse assessed as reduction in tumor volume at 25 mg/kg, ip measured once 3 days for 21 days (reference value: 49.16 to 1032.50 mm^3); type: functional; settings: time 3 day
[21] = Toxicity in Balb/c mouse implanted with mouse 4T1-luc cells assessed as weight loss at 15 mg/kg, ip; type: organism-based; settings: in vivo
[22] = tested on: 4T1; experiment: Antitumor activity against mouse 4T1 Luc cells implanted in Balb/c mouse assessed as increase in fluorescence at 25 mg/kg using luciferin-D as substrate at 100 mg/kg, ip measured on day 10 and 21 by IVIS Lumina III analysis; type: functional, organism-based
[23] = Toxicity in Balb/c mouse implanted with mouse 4T1-luc cells assessed as mortality at 15 to 25 mg/kg, ip; type: organism-based; settings: in vivo, dose 15-25 mg/kg
[24] = tested on: 4T1; experiment: Antitumor activity against mouse 4T1 Luc cells implanted in Balb/c mouse assessed as reduction in metastasis at 15 to 25 mg/kg measured after 21 days by Kaplan-Meier method; type: functional, organism-based; settings: dose 15-25 mg/kg, time 21.0 day
[25] = tested on: 4T1; experiment: Induction of intracellular ROS generation in mouse 4T1 Luc cells implanted in Balb/c mouse assessed as increase fluorescence intensity at 15 mg/kg measured after 21 days by DCFH-DA probe based fluorescent microscopy analysis; type: functional, organism-based; settings: time 21.0 day
[26] = tested on: 4T1; experiment: Induction of apoptosis in mouse 4T1 Luc cells implanted in Balb/c mouse assessed as increase in ROS generation at 25 mg/kg by fluorescent microscopy analysis; type: functional, organism-based
[27] = tested on: 4T1; experiment: Antitumor activity against mouse 4T1 Luc cells implanted in Balb/c mouse assessed as decrease in Ki-67 in tumor tissue at 15 to 25 mg/kg by immunohistochemical analysis; type: functional, organism-based; settings: dose 15-25 mg/kg
[28] = Toxicity in Balb/c mouse implanted with mouse 4T1 Luc cells assessed as heart tissue damage at 15 mg/kg by H and E staining; type: organism-based; settings: in vivo
[29] = Toxicity in Balb/c mouse implanted with mouse 4T1 Luc cells assessed as liver tissue damage at 15 mg/kg by H and E staining; type: organism-based; settings: in vivo
[30] = Toxicity in Balb/c mouse implanted with mouse 4T1 Luc cells assessed as kidney tissue damage at 15 mg/kg by H and E staining; type: organism-based; settings: in vivo
[31] = Toxicity in Balb/c mouse implanted with mouse 4T1 Luc cells assessed as spleen tissue damage at 15 mg/kg by H and E staining; type: organism-based; settings: in vivo
[32] = Toxicity in Balb/c mouse implanted with mouse 4T1 Luc cells assessed as lung tissue damage at 15 mg/kg by H and E staining; type: organism-based; settings: in vivo
[33] = tested on: 4T1; experiment: Induction of apoptosis in mouse 4T1 Luc cells implanted in Balb/c mouse assessed as upregulation of caspase 3 level at 15 to 25 mg/kg incubated for 24 hrs by Western blot analysis; type: functional, organism-based; settings: dose 15-25 mg/kg
[34] = tested on: 4T1; experiment: Induction of apoptosis in mouse 4T1 Luc cells implanted in Balb/c mouse assessed as upregulation of caspase 7 level at 15 to 25 mg/kg incubated for 24 hrs by Western blot analysis; type: functional, organism-based; settings: dose 15-25 mg/kg
[35] = tested on: 4T1; experiment: Induction of apoptosis in mouse 4T1 Luc cells implanted in Balb/c mouse assessed as increase in cytochrome c level at 15 to 25 mg/kg incubated for 24 hrs by Western blot analysis; type: functional, organism-based; settings: dose 15-25 mg/kg
[36] = tested on: 4T1; experiment: Induction of apoptosis in mouse 4T1 Luc cells implanted in Balb/c mouse downregulation of Bcl2 expression at 15 to 25 mg/kg incubated for 24 hrs by Western blot analysis; type: functional, organism-based; settings: dose 15-25 mg/kg
[37] = tested on: 4T1; experiment: Induction of apoptosis in mouse 4T1 Luc cells implanted in Balb/c mouse reduction in CD44 expression at 15 to 25 mg/kg incubated for 24 hrs by Western blot analysis; type: functional, organism-based; settings: dose 15-25 mg/kg

## CCCNNC(=O)c1ccc(Nc2ccccc2)cc1
[1]
  Tmax: 0.5 h
[2]
  Tmax: 0.5 h
[3]
  Tmax: 2 h
[4]
  Cmax: 26700 ng/mL and 99.3 µM
[5]
  Cmax: 32100 ng/mL and 120 µM
[6]
  Cmax: 8340 ng/mL and 31 µM
[7]
  AUC(0-t) at 24 h: 159000 ng·h/mL and 592 µM·h
[8]
  AUC(0-t) at 24 h: 200000 ng·h/mL and 742 µM·h
[9]
  AUC(0-t) at 24 h: 28900 ng·h/mL and 107 µM·h
[10]
  AUC(0-inf): 200000 ng·h/mL and 744 µM·h
[11]
  AUC(0-inf): 29300 ng·h/mL and 109 µM·h
[12]
  MRT: 5.69 h
[13]
  MRT: 5.13 h
[14]
  MRT: 4.16 h
[15]
  half-life: 2.19 h
[16]
  half-life: 2.62 h
[17]
  half-life: 3.41 h
[18]
  Vz/F: 2.16 (mg/kg)/(ug/ml) and 1.44 (mg/kg)/(uM)
[19]
  Vz/F: 3.27 (mg/kg)/(ug/ml) and 2.01 (mg/kg)/(uM)
[20]
  Activity: 51.83 mm3
[21]
  Activity: Non-Toxic
[22]
  Activity: Active
[23]
  Activity: Non-Toxic
[24]
  Activity: Active
[25]
  Activity: Active
[26]
  Activity: Active
[27]
  Activity: Active
[28]
  Activity: Non-Toxic
[29]
  Activity: Non-Toxic
[30]
  Activity: Non-Toxic
[31]
  Activity: Non-Toxic
[32]
  Activity: Non-Toxic
[33]
  Activity: Active
[34]
  Activity: Active
[35]
  Activity: Active
[36]
  Activity: Active
[37]
  Activity: Active
